Data reported in publication PMC6110851, “An Optimized MicroPET Imaging Method for the Distribution and Synergies of Natural Products” (Frontiers in Pharmacology, 2018).

Experiments:
[1] = Safety evaluation during the MicroPET experiment (vital signs, electrocardiograms); type: in vivo, mice
[2] = MicroPET biodistribution of [^18F]-GA in mice; type: in vivo; details: for time to peak in organ: after injection
Method: The mice were grouped by weight and housed in cages of the climate control room (25°C), with a photoperiod 12:12-h. During feeding, mice were free to access food and water. Mice were fasted for 24 h before the experiment. The mice were anesthetized with 4% isoflurane while preparing for scanning ([Constantinescu et al., 2013b]; [Cui et al., 2017]). Eighteen healthy male Kunming mice, weighing 20 ± 2 g, were divided into three groups, which were control group, once-administered (OA) group and long-term administration (LA) group. In the OA group, 1 h before the administration of [^18F]-GA, the mice were orally treated with PG polysaccharides. In the LA group, the mice were orally given the PG polysaccharides for 7 days, but not before the administration of [^18F]-GA.
Rice received a tail vein injection (8.67 ± 2.14 MBq/μg) of [^18F]-GA and placed in the scanner bed and mouse-imaging room immediately ([Constantinescu et al., 2013b]; [O’Doherty et al., 2017]). Firstly, 2 h PET scanning was performed using an Inveon-dedicated PET scanner. The average delay between injection and starting of PET scanning was 3.5 min. Rice were maintained stable under 4% isoflurane anesthesia throughout scanning. The PET list-mode data were dynamically classified into 23 3D sinograms of span and three ring difference. After Fourier recombination, the data were reconstructed using a 2D ordered-subset expectation maximization algorithm. Random events were excluded before reconstruction. The response of detector is normalized using a component-based approach. All dynamic images were corrected for radioactive decay automatically. The PET images were reconstructed by a cone beam algorithm into 480 × 480 × 632 image arrays. After the reconstruction, images were spatially transformed to match the PET images ([Constantinescu et al., 2013a],[b]).
The reconstruction of the image was performed using the PMOD software (PMOD Technologies). The 3D volumes of interest (VOIs) were drawn manually of the following organs: brain, heart, liver, lungs, kidneys, cortical bone, and gallbladder. The organs were carefully identified and VOIs were drawn as irregular contours on high-resolution PET images obtained from each mouse ([Constantinescu et al., 2013b]; [Garg et al., 2017]). The size of each VOI was less than the actual size of each organ to minimize the effects of PET on adjacent organ spills. The VOIs drawing was verified by a second operator. The VOIs of cortical bone were generated by first using PET image to depict the entire femur bone ([Constantinescu et al., 2013b]). The VOI was transferred to a dynamic PET image and the mean time-activity curve (TAC) of the decay correction was extracted for each target organ ([Constantinescu et al., 2013b]).

[3] = mice, tail vein injection, Time(s) 60
[4] = mice, tail vein injection, Time(s) 180
[5] = mice, tail vein injection, Time(s) 300
[6] = mice, tail vein injection, Time(s) 420
[7] = mice, tail vein injection, Time(s) 660
[8] = mice, tail vein injection, Time(s) 780
[9] = mice, tail vein injection, Time(s) 900
[10] = mice, tail vein injection, Time(s) 1020
[11] = mice, tail vein injection, Time(s) 1140
[12] = mice, tail vein injection, Time(s) 1350
[13] = mice, tail vein injection, Time(s) 1650
[14] = mice, tail vein injection, Time(s) 1950
[15] = mice, tail vein injection, Time(s) 2250
[16] = mice, tail vein injection, Time(s) 2700
[17] = mice, tail vein injection, Time(s) 3300
[18] = mice, tail vein injection, Time(s) 3900
[19] = mice, tail vein injection, Time(s) 4500
[20] = mice, tail vein injection, Time(s) 5100
[21] = mice, tail vein injection, Time(s) 5700
[22] = mice, tail vein injection, Time(s) 6300
[23] = mice, tail vein injection, Time(s) 6900

For `CC1(C)[C@@H](O)CC[C@]2(C)[C@H]3C(=O)C=C4[C@@H]5C[C@@](C)(C(=O)NCCCC[18F])CC[C@]5(C)CC[C@@]4(C)[C@]3(C)CC[C@@H]12` [[^18F]-GA, [^18F]-Glycyrrhetinic acid], the “change in vital signs or electrocardiograms” value [1] was “no change in vital signs or electrocardiograms significantly”, the “organ of highest uptake” value ([2]; all mice) was “highest uptake was found in the liver” and the “time to peak in organ” value ([2]; gallbladder, mice, maintained on the peak) was 30 min. The “time to peak in organ” value ([2]; heart, lung, and kidney, mice) was “immediately reached a peak”, the “time to peak in organ” value ([2]; liver, mice) was 7 min and the brain concentrations ([2]; mice, MicroPET 3-130 min) was “consistently low”. The “route of excretion of radioactivity” value ([2]; mice, radiotracer found in the gallbladder) was “excreted via the biliary”, the “Organs (%ID/g) Brain” value [2, 3] was 1.19 %ID/g and the “Organs (%ID/g) Gallbladder” value [2, 3] was 11.19 %ID/g. For the same compound, the “Organs (%ID/g) Heart” value [2, 3] was 12.13 %ID/g, the “Organs (%ID/g) Kidney” value [2, 3] was 9.67 %ID/g and the “Organs (%ID/g) Liver” value [2, 3] was 13.03 %ID/g. For the same compound, the “Organs (%ID/g) Brain” value [2, 4] was 0.79 %ID/g, the “Organs (%ID/g) Gallbladder” value [2, 4] was 14.59 %ID/g and the “Organs (%ID/g) Heart” value [2, 4] was 6.52 %ID/g. For the same compound, the “Organs (%ID/g) Kidney” value [2, 4] was 8.98 %ID/g, the “Organs (%ID/g) Liver” value [2, 4] was 17.00 %ID/g and the “Organs (%ID/g) Brain” value [2, 5] was 0.73 %ID/g. The “Organs (%ID/g) Gallbladder” value [2, 5] was 19.88 %ID/g, the “Organs (%ID/g) Heart” value [2, 5] was 4.75 %ID/g and the “Organs (%ID/g) Kidney” value [2, 5] was 7.13 %ID/g. The “Organs (%ID/g) Liver” value [2, 5] was 16.13 %ID/g, the “Organs (%ID/g) Heart” value [2, 6] was 4.07 %ID/g and the “Organs (%ID/g) Kidney” value [2, 6] was 6.26 %ID/g. The “Organs (%ID/g) Liver” value [2, 6] was 14.94 %ID/g, the “Organs (%ID/g) Brain” value [2, 7] was 0.58 %ID/g and the “Organs (%ID/g) Gallbladder” value [2, 7] was 26.93 %ID/g. For the same compound, the “Organs (%ID/g) Heart” value [2, 7] was 3.50 %ID/g, the “Organs (%ID/g) Kidney” value [2, 7] was 5.00 %ID/g and the “Organs (%ID/g) Liver” value [2, 7] was 12.33 %ID/g. The “Organs (%ID/g) Lung” value [2, 7] was 2.45 %ID/g, the “Organs (%ID/g) Brain” value [2, 8] was 0.61 %ID/g and the “Organs (%ID/g) Gallbladder” value [2, 8] was 29.01 %ID/g. The “Organs (%ID/g) Heart” value [2, 8] was 3.33 %ID/g, the “Organs (%ID/g) Kidney” value [2, 8] was 4.73 %ID/g and the “Organs (%ID/g) Liver” value [2, 8] was 11.32 %ID/g. For the same compound, the “Organs (%ID/g) Brain” value [2, 9] was 0.54 %ID/g, the “Organs (%ID/g) Gallbladder” value [2, 9] was 30.51 %ID/g and the “Organs (%ID/g) Kidney” value [2, 9] was 4.52 %ID/g. For the same compound, the “Organs (%ID/g) Liver” value [2, 9] was 10.43 %ID/g, the “Organs (%ID/g) Brain” value [2, 10] was 0.56 %ID/g and the “Organs (%ID/g) Gallbladder” value [2, 10] was 33.20 %ID/g. The “Organs (%ID/g) Heart” value [2, 10] was 3.03 %ID/g, the “Organs (%ID/g) Kidney” value [2, 10] was 4.23 %ID/g and the “Organs (%ID/g) Liver” value [2, 10] was 9.66 %ID/g. The “Organs (%ID/g) Brain” value [2, 11] was 0.52 %ID/g, the “Organs (%ID/g) Gallbladder” value [2, 11] was 34.49 %ID/g and the “Organs (%ID/g) Heart” value [2, 11] was 2.92 %ID/g. For the same compound, the “Organs (%ID/g) Kidney” value [2, 11] was 4.04 %ID/g, the “Organs (%ID/g) Liver” value [2, 11] was 9.05 %ID/g and the “Organs (%ID/g) Brain” value [2, 12] was 0.49 %ID/g. For the same compound, the “Organs (%ID/g) Gallbladder” value [2, 12] was 36.96 %ID/g, the “Organs (%ID/g) Kidney” value [2, 12] was 3.71 %ID/g and the “Organs (%ID/g) Liver” value [2, 12] was 8.34 %ID/g. The “Organs (%ID/g) Brain” value [2, 13] was 0.41 %ID/g, the “Organs (%ID/g) Gallbladder” value [2, 13] was 40.92 %ID/g and the “Organs (%ID/g) Heart” value [2, 13] was 2.67 %ID/g. The “Organs (%ID/g) Kidney” value [2, 13] was 3.30 %ID/g, the “Organs (%ID/g) Liver” value [2, 13] was 7.55 %ID/g and the “Organs (%ID/g) Brain” value [2, 14] was 0.42 %ID/g. The “Organs (%ID/g) Gallbladder” value [2, 14] was 42.68 %ID/g, the “Organs (%ID/g) Heart” value [2, 14] was 2.64 %ID/g and the “Organs (%ID/g) Liver” value [2, 14] was 6.96 %ID/g. For the same compound, the “Organs (%ID/g) Brain” value [2, 15] was 0.39 %ID/g, the “Organs (%ID/g) Gallbladder” value [2, 15] was 44.48 %ID/g and the “Organs (%ID/g) Heart” value [2, 15] was 2.82 %ID/g. For the same compound, the “Organs (%ID/g) Kidney” value [2, 15] was 2.79 %ID/g, the “Organs (%ID/g) Liver” value [2, 15] was 6.50 %ID/g and the “Organs (%ID/g) Brain” value [2, 16] was 0.42 %ID/g. For the same compound, the “Organs (%ID/g) Gallbladder” value [2, 16] was 43.79 %ID/g, the “Organs (%ID/g) Heart” value [2, 16] was 2.37 %ID/g and the “Organs (%ID/g) Kidney” value [2, 16] was 2.52 %ID/g. For the same compound, the “Organs (%ID/g) Liver” value [2, 16] was 5.90 %ID/g, the “Organs (%ID/g) Brain” value [2, 17] was 0.37 %ID/g and the “Organs (%ID/g) Gallbladder” value [2, 17] was 45.86 %ID/g. The “Organs (%ID/g) Heart” value [2, 17] was 2.43 %ID/g, the “Organs (%ID/g) Kidney” value [2, 17] was 2.22 %ID/g and the “Organs (%ID/g) Liver” value [2, 17] was 5.27 %ID/g. For the same compound, the “Organs (%ID/g) Brain” value [2, 18] was 0.37 %ID/g, the “Organs (%ID/g) Gallbladder” value [2, 18] was 46.86 %ID/g and the “Organs (%ID/g) Heart” value [2, 18] was 2.63 %ID/g. For the same compound, the “Organs (%ID/g) Liver” value [2, 18] was 4.83 %ID/g, the “Organs (%ID/g) Brain” value [2, 19] was 0.45 %ID/g and the “Organs (%ID/g) Gallbladder” value [2, 19] was 41.98 %ID/g. The “Organs (%ID/g) Heart” value [2, 19] was 2.11 %ID/g, the “Organs (%ID/g) Kidney” value [2, 19] was 1.92 %ID/g and the “Organs (%ID/g) Liver” value [2, 19] was 4.51 %ID/g. For the same compound, the “Organs (%ID/g) Brain” value [2, 20] was 0.38 %ID/g, the “Organs (%ID/g) Gallbladder” value [2, 20] was 39.31 %ID/g and the “Organs (%ID/g) Heart” value [2, 20] was 2.28 %ID/g. For the same compound, the “Organs (%ID/g) Kidney” value [2, 20] was 1.82 %ID/g, the “Organs (%ID/g) Liver” value [2, 20] was 4.27 %ID/g and the “Organs (%ID/g) Brain” value [2, 21] was 0.41 %ID/g. For the same compound, the “Organs (%ID/g) Gallbladder” value [2, 21] was 36.96 %ID/g, the “Organs (%ID/g) Heart” value [2, 21] was 1.96 %ID/g and the “Organs (%ID/g) Liver” value [2, 21] was 3.90 %ID/g. The “Organs (%ID/g) Brain” value [2, 22] was 0.46 %ID/g, the “Organs (%ID/g) Gallbladder” value [2, 22] was 39.06 %ID/g and the “Organs (%ID/g) Heart” value [2, 22] was 2.18 %ID/g. For the same compound, the “Organs (%ID/g) Kidney” value [2, 22] was 1.65 %ID/g, the “Organs (%ID/g) Liver” value [2, 22] was 3.82 %ID/g and the “Organs (%ID/g) Brain” value [2, 23] was 0.48 %ID/g. The “Organs (%ID/g) Gallbladder” value [2, 23] was 41.97 %ID/g, the “Organs (%ID/g) Heart” value [2, 23] was 2.64 %ID/g and the “Organs (%ID/g) Kidney” value [2, 23] was 1.59 %ID/g. The “Organs (%ID/g) Liver” value [2, 23] was 3.64 %ID/g.
